Entries after “also recorded” stand apart in the source; their conditions may differ.
Legend:
[1] = system: formalin-induced pain; experiment: Formalin test, model of acute tonic pain; assay type: in vivo; settings: rat
Method: Male Sprague-Dawley rats are housed together in groups of three animals under standard conditions with unrestricted access to food and water. All experiments are conducted according to the ethical guidelines for investigations of experimental pain in conscious animals (Zimmerman, 1983)
Assessment of formalin-induced flinching behavior in normal, uninjured rats (body weight 150-180 g) was made with the use of an Automated Nociception Analyser (University of California, San Diego, USA). Briefly, this involved placing a small C-shaped metal band (10 mm wide×27 mm long) on the hindpaw of the rat to be tested. The rats (four rats were included in each testing session) were then placed in a cylindrical plexiglass observation chamber (diameter 30.5 cm and height 15 cm) for 20 min for adaptation purposes prior to being administered drug or vehicle according to the experimental paradigm being followed. […] Rats were then returned to their separate observation chambers, each of which were in turn situated upon an enclosed detection device consisting of two electromagnetic coils designed to produce an electromagnetic field in which movement of the metal band could be detected. […] A sampling interval of 1 min was used and on the basis of the resulting response patterns 5 phases of nociceptive behaviour were identified and scored: first phase (P1; 0-5 min), interphase (Int; 6-15 min), second phase (P2; […]), phase 2A (P2A; 16-40 min) and phase 2B (P2B; 41-60 min).
Nociceptive behavior was also determined manually every 5 min by measuring the amount of time spent in each of four behavioral categories: 0, treatment of the injected hindpaw is indistinguishable from that of the contralateral paw; 1, the injected paw has little or no weight placed on it; 2, the injected paw is elevated and is not in contact with any surface; 3, the injected paw is licked, bitten, or shaken. A weighted nociceptive score, ranging from 0 to 3 was calculated by multiplying the time spent in each category by the category weight, summing these products, and dividing by the total time for each 5 min block of time. […]

[2] = molecular target: T1, hASIC3 (Homo sapiens, UniProt Q9UHC3); experiment: Whole-cell patch clamp of acid-evoked currents in CHO cells transfected with hASIC3; assay type: cell-based; set-up: expressed in transfected cells
T1 sequence (Q9UHC3 1-531): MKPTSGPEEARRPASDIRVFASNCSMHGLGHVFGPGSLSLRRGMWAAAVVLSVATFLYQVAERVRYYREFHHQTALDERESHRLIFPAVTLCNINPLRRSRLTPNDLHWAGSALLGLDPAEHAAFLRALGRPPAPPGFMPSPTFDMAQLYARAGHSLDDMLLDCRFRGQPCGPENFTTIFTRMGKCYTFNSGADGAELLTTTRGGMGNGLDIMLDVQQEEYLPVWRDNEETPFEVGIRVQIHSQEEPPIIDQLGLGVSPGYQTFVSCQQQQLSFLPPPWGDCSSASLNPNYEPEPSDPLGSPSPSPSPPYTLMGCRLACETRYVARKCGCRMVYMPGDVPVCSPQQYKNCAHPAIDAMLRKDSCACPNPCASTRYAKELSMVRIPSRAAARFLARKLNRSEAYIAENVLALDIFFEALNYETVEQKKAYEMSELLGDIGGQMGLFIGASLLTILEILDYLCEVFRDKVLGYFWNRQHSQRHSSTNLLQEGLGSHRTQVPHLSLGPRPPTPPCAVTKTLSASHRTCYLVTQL
Method: All experiments are performed at room temperature (20-25° C.) in voltage clamp using conventional whole cell patch clamp methods (Neher, E., et al. (1978) Pfluegers Arch 375:219-228).
Coverslips with the cells are transferred to a 15 μl experimental chamber mounted on the stage of an inverted microscope (IMT-2, Olympus) supplied with Nomarski optics. Cells are continuously superfused with extracellular saline at a rate of 2.5 ml/min. After giga-seal formation, the whole cell configuration is attained by suction. The cells are held at a holding voltage of −60 mV and at the start of each experiment the current is continuously measured for 45 s to ensure a stable baseline. […] Current amplitudes are measured at the peak of the responses, and effect of the compounds is calculated as the amplitude at compound equilibrium divided by the amplitude of the current evoked by the pulse just before the compound was included. […]
FIG. 3 compares the selectivity of Compound R for human ASIC1a versus human ASIC3, both stably transfected in CHO cells. […] FIG. 3C compares the dose-response relationship of Compound R on hASIC1a and hASIC3 [determined by measuring the area under the curve of the response (total charge transfer) and normalized to the control response].

Row | Structure (SMILES) | formalin-induced pain, flinching / total pain score (FIG. 5) ([1]; i.p. 30 min before formalin, Automated Nociception Analyser, phase 2, n=6) | ED50 ([1]; licking and biting episodes in phase IIa of the formalin test (FIG. 7), read-out: ED50 (dose where the pain score is reduced by half)) [mg/kg] | formalin-induced pain behavior (FIGS. 6A, 6B) ([1]; manual scoring, overall pain behaviour and licking/biting, n=6) | effect on acid evoked hASIC3 current amplitude (FIG. 3B) ([2]; 30 μM, CHO cells) | Biological Data (IC50 uM) h3 (PC) ([2]; patch clamp (PC), Table A)
1 | COc1ccc(C(=O)CN2CCN(c3cc(C)nc4ccccc34)CC2)cc1 [Compound A, 1-(4-methoxy-phenyl)-2-[4-(2-methyl-quinolin-4-yl)-piperazin-1-yl]-ethanone] | able to reduce the total pain score behavior; also recorded: dose-dependent reduction of the pain intensity | – | – | – | –
2 | Cc1cc(OC2CCN(Cc3ccccc3)CC2)c2ccccc2n1 [Compound R, 4-(1-benzyl-piperidin-4-yloxy)-2-methyl-quinoline] | – | ~50 | dose-dependent effect; also recorded: dose-dependent reduction of the pain behavior | failed to reduce the amplitude of the current; also recorded: failed to inhibit | inactive
